# Experimental data taken from patent US20080009418A1, “Selective Inhibitors” (Alchemia LTD., priority 2004, published 2008).
# What was measured:
# Settings in all cases: compound at 10 μM
# Mouse urotensin (mUR2) = target: T1, Mouse urotensin (mUR2) (Mus musculus, UniProt Q8VIH9); test: Radioligand binding, mouse urotensin mUR2 membranes, FlashPlate, [125I]-Urotensin II
# T1 construct: purchased Perkin Elmer Biosignal
# T1 sequence (Q8VIH9 1-385): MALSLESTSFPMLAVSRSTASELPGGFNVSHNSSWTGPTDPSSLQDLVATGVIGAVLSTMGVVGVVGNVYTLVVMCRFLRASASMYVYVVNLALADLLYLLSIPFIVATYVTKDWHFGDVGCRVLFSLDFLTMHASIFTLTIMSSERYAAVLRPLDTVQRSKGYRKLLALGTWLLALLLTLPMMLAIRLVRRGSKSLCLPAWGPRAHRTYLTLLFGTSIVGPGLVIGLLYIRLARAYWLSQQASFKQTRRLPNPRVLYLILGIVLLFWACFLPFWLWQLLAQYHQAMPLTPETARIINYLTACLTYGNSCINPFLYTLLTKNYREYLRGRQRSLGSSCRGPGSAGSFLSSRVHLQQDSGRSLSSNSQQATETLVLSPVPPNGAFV
# In short: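 Cloned mouse urotensin (mUR2) receptor membranes from Perkin Elmer Biosignal were immobilized in FlashPlate microplates using a proprietary coating. Each well got 19.5 μl buffer, then 0.5 μl of DMSO, reference ligand, or compound. Adding 5 μl of [125I]-Urotensin II, diluted to 5× final concentration in binding buffer, started binding. Plates were sealed with TopSeal-A and incubated 1 hour at room temperature in the dark. Wells were counted for 30 seconds each on a TopCount after a 60-second delay, and percentage inhibition was calculated.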
# Human melanocortin (MC5) = target: T2, Human melanocortin (MC5) (Homo sapiens, UniProt P33032); test: Radioligand binding, human melanocortin MC5 membranes, FlashPlate, [125I]-NDP-αMSH
# T2 construct: purchased Perkin Elmer Biosignal
# In short: (§1)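 Cloned human receptor membranes were coated onto FlashPlate wells and incubated with radioligand and compound (added from a 0.5 mM DMSO daughter plate) for 1 hour at room temperature in the dark. Scintillation counting gave percent inhibition, with DMSO defining total and reference ligand defining non-specific binding.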
# Human Melanocortin (MC3) = target: T3, Human Melanocortin (MC3) (Homo sapiens, UniProt P41968); test: Radioligand binding, human melanocortin MC3 membranes, FlashPlate, [125I]-NDP-αMSH
# T3 construct: purchased Perkin Elmer Biosignal
# In short: as §1
# Human μ-opioid (MOP) = target: T4, Human μ-opioid (MOP) (Homo sapiens, UniProt P35372); test: Radioligand binding, human μ-opioid (MOP) membranes, FlashPlate, [3H]-Naloxone
# T4 construct: purchased Perkin Elmer Biosignal
# In short: as §1
# [1] = target: T5, Human melanin-concentrating hormone (MCH1) (Homo sapiens, UniProt Q99705); test: Radioligand binding, human melanin-concentrating hormone MCH1 membranes, FlashPlate, [125I]-S36057
# T5 construct: purchased Perkin Elmer Biosignal
# In short: as §1
# Human neurokinin (NK1) = target: T6, Human neurokinin (NK1) (Homo sapiens, UniProt P25103); test: Radioligand binding, human neurokinin NK1 membranes, filtration, [125I]-Substance P
# T6 construct: purchased Perkin Elmer Biosignal
# In short: (§2)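 Percent inhibition of radioligand binding measured on recombinant human membranes: NK1 with [125I]-Substance P, KOP with [3H]-Diprenorphine. Incubation 1 h at room temperature, then harvest onto 0.3% PEI-soaked filters, cold Tris-HCl pH 7.4 washes and scintillation counting; non-specific binding from reference ligand wells.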
# Human δ-opioid (DOP) = target: T7, Human δ-opioid (DOP) (Homo sapiens, UniProt P41143); test: Radioligand binding, human δ-opioid (DOP) membranes, FlashPlate, [3H]-Bremazocine
# T7 construct: purchased Perkin Elmer Biosignal
# In short: as §1
# Human Melanocortin (MC4) = target: T8, Human Melanocortin (MC4) (Homo sapiens, UniProt P32245); test: Radioligand binding, human melanocortin MC4 membranes, FlashPlate, [125I]-NDP-αMSH
# T8 construct: purchased Perkin Elmer Biosignal
# In short: as §1
# [2] = target: T9, Human neuropeptide Y (NPY-Y1) (Homo sapiens, UniProt P25929); test: Radioligand binding, human neuropeptide Y NPY-Y1 membranes, FlashPlate, [125I]-PYY
# T9 construct: purchased Perkin Elmer Biosignal
# T9 sequence (P25929 1-384): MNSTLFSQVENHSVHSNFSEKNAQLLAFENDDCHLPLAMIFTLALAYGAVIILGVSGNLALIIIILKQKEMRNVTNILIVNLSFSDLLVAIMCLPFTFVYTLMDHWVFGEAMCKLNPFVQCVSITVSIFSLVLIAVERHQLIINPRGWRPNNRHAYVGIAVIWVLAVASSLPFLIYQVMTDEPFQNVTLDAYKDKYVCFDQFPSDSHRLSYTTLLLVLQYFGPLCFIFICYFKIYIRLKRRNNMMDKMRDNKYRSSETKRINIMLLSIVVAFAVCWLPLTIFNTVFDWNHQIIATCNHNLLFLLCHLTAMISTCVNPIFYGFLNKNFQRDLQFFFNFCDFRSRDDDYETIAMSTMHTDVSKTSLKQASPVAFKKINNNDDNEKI
# In short: as §1
# Human opioid (ORL1) = target: T10, Human opioid (ORL1) (Homo sapiens, UniProt P41146); test: Radioligand binding, human opioid ORL1 membranes, FlashPlate, [125I]-Nociceptin
# T10 construct: purchased Perkin Elmer Biosignal
# In short: as §1
# Human κ-Opioid (KOP) = target: T11, Human κ-Opioid (KOP) (Homo sapiens, UniProt P41145); test: Radioligand binding, human κ-opioid (KOP) membranes, filtration, [3H]-Diprenorphine
# T11 construct: purchased Perkin Elmer Biosignal
# In short: as §2
# T11 sequence (P41145 whole entry): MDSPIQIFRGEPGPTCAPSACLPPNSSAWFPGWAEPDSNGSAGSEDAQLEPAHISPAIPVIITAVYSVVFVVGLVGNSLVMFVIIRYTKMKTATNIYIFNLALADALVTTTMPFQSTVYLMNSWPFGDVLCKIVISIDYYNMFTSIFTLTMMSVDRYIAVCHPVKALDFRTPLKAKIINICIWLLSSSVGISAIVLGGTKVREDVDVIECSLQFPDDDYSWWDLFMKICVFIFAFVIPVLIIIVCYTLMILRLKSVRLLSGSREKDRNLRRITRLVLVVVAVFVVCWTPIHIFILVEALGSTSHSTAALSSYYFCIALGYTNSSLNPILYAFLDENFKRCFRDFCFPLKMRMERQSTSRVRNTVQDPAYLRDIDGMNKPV
# T8 sequence (P32245 whole entry): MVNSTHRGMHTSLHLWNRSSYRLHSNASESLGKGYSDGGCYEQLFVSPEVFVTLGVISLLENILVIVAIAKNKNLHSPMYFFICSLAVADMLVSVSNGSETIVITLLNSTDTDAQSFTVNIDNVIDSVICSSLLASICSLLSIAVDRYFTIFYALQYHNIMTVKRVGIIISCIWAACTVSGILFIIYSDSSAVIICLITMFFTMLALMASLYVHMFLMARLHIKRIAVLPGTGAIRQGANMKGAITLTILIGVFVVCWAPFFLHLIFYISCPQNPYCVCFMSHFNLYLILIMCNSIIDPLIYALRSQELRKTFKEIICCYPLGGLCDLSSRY
# T2 sequence (P33032 whole entry): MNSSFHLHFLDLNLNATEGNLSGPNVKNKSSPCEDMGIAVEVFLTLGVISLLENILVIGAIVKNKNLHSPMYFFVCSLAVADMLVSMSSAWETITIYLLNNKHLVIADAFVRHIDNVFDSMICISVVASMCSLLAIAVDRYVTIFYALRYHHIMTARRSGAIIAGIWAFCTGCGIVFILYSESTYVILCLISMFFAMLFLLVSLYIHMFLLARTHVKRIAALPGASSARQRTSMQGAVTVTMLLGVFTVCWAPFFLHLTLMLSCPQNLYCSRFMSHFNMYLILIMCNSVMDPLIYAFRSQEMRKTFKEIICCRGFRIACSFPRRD
# T4 sequence (P35372 whole entry): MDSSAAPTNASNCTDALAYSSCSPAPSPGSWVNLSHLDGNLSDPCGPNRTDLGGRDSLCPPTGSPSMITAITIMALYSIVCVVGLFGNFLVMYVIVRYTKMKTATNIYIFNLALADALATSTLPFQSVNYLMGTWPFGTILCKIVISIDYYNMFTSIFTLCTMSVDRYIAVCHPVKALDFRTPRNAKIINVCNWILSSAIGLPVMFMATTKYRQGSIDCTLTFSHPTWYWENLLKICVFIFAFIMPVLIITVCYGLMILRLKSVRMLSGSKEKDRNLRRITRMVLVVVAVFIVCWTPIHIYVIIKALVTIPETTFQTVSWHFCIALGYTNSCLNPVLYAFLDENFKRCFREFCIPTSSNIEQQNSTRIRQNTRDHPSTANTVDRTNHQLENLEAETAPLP
# T10 sequence (P41146 whole entry): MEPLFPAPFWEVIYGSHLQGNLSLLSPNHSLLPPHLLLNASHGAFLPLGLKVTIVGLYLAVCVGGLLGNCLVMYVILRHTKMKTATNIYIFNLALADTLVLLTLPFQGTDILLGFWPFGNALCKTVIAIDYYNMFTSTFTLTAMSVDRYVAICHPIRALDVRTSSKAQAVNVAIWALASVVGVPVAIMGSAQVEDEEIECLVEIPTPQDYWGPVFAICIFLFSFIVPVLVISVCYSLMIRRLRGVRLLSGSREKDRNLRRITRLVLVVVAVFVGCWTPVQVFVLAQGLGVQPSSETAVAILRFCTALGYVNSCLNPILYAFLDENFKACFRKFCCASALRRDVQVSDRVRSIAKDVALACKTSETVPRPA
# T5 sequence (Q99705 whole entry): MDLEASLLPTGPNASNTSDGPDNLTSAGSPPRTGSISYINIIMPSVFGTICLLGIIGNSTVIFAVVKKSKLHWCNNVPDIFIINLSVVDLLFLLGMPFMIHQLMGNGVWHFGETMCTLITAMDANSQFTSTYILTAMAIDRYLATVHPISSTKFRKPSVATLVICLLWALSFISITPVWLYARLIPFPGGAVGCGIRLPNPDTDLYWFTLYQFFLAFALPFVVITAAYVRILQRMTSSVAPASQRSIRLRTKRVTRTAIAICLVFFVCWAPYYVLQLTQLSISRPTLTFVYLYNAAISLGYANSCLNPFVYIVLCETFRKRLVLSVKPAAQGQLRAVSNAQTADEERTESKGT
# T3 sequence (P41968 whole entry): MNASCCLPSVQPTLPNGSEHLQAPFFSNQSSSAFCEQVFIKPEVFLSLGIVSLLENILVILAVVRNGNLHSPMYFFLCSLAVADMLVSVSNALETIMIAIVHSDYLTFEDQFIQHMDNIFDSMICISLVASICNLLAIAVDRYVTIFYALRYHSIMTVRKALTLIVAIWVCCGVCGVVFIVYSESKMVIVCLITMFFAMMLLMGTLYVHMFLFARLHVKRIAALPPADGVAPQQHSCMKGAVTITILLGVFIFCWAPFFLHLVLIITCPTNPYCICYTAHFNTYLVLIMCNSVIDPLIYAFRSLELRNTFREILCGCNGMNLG
# T7 sequence (P41143 whole entry): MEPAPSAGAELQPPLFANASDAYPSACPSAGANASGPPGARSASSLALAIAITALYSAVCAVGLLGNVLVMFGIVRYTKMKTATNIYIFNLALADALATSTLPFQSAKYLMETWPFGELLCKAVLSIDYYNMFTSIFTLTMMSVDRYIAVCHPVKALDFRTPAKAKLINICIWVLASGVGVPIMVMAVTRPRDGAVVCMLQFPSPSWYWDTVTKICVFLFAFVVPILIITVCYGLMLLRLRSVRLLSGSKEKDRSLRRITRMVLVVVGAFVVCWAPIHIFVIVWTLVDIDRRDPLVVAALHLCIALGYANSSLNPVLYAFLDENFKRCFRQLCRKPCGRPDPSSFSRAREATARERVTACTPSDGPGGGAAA
# T6 sequence (P25103 whole entry): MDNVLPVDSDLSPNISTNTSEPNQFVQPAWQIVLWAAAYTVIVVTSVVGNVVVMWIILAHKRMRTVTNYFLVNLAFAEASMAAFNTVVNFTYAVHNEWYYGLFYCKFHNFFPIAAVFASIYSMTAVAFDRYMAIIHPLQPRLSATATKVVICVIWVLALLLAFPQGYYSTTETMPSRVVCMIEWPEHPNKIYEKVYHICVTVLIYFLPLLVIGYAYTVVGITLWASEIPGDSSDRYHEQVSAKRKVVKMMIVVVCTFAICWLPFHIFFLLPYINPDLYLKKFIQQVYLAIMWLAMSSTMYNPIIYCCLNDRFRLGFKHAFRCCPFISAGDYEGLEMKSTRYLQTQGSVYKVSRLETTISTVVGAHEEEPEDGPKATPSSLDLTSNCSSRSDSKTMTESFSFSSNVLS
smiles,measurement,setting,value
COC[C@H]1OC(OCCc2ccccc2)[C@H](NC(=O)CCCNC(=N)N)[C@@H](OCc2ccc(Cl)cc2)[C@@H]1O (stereo partly drawn) [compound 50],A11 radioligand binding inhibition,Mouse urotensin (mUR2); mouse urotensin mUR2 membranes,− (“−” indicates less than 50% inhibition at 10 μM)
same,A5 radioligand binding inhibition,Human melanocortin (MC5); human melanocortin MC5 membranes,− (“−” indicates less than 50% inhibition at 10 μM)
same,A3 radioligand binding inhibition,Human Melanocortin (MC3); human melanocortin MC3 membranes,− (“−” indicates less than 50% inhibition at 10 μM)
same,A7 radioligand binding inhibition,Human μ-opioid (MOP); human μ-opioid (MOP) membranes,− (“−” indicates less than 50% inhibition at 10 μM)
same,A6 radioligand binding inhibition,[1]; human MCH1 membranes,+ (“+” indicates greater than 50% inhibition at 10 μM)
same,A8 radioligand binding inhibition,Human neurokinin (NK1); human neurokinin NK1 membranes,+ (“+” indicates greater than 50% inhibition at 10 μM)
same,A1 radioligand binding inhibition,Human δ-opioid (DOP); human δ-opioid (DOP) membranes,− (“−” indicates less than 50% inhibition at 10 μM)
same,A4 radioligand binding inhibition,Human Melanocortin (MC4); human melanocortin MC4 membranes,− (“−” indicates less than 50% inhibition at 10 μM)
same,A9 radioligand binding inhibition,[2]; human NPY-Y1 membranes,− (“−” indicates less than 50% inhibition at 10 μM)
same,A10 radioligand binding inhibition,Human opioid (ORL1); human ORL1 membranes,− (“−” indicates less than 50% inhibition at 10 μM)
same,A2 radioligand binding inhibition,Human κ-Opioid (KOP); human κ-opioid (KOP) membranes,− (“−” indicates less than 50% inhibition at 10 μM)
CO[C@H]1[C@H](O)[C@@H](COCc2ccc(Cl)cc2)OC(OCCc2ccccc2)[C@@H]1NC(=O)CCCNC(=N)N (stereo partly drawn) [compound 122],"A11 radioligand binding, percentage inhibition",Mouse urotensin (mUR2); [125I]-Urotensin II,− (“−” indicates less than 50% inhibition at 10 μM)
same,"A5 radioligand binding, percentage inhibition",Human melanocortin (MC5); [125I]-NDP-αMSH,+ (“+” indicates greater than 50% inhibition at 10 μM)
same,"A3 radioligand binding, percentage inhibition",Human Melanocortin (MC3); [125I]-NDP-αMSH,− (“−” indicates less than 50% inhibition at 10 μM)
same,"A7 radioligand binding, percentage inhibition",Human μ-opioid (MOP); [3H]-Naloxone,− (“−” indicates less than 50% inhibition at 10 μM)
same,"A6 radioligand binding, percentage inhibition",[1]; [125I]-S36057,− (“−” indicates less than 50% inhibition at 10 μM)
same,"A8 radioligand binding, percentage inhibition",Human neurokinin (NK1); [125I]-Substance P,+ (“+” indicates greater than 50% inhibition at 10 μM)
same,"A1 radioligand binding, percentage inhibition",Human δ-opioid (DOP); [3H]-Bremazocine,− (“−” indicates less than 50% inhibition at 10 μM)
same,"A4 radioligand binding, percentage inhibition",Human Melanocortin (MC4); [125I]-NDP-αMSH,+ (“+” indicates greater than 50% inhibition at 10 μM)
same,"A9 radioligand binding, percentage inhibition",[2]; [125I]-PYY,− (“−” indicates less than 50% inhibition at 10 μM)
same,"A10 radioligand binding, percentage inhibition",Human opioid (ORL1); [125I]-Nociceptin,− (“−” indicates less than 50% inhibition at 10 μM)
same,"A2 radioligand binding, percentage inhibition",Human κ-Opioid (KOP); [3H]-Diprenorphine,− (“−” indicates less than 50% inhibition at 10 μM)
COCC1OC(OCc2ccc3ccccc3c2)C(NC(=O)CCCN)C(OCc2ccccc2)C1O (stereo not drawn) [compound 233],A11: inhibition of radioligand binding,"Mouse urotensin (mUR2); [125I]-Urotensin II, FlashPlate",− (“−” indicates less than 50% inhibition at 10 μM)
same,A5: inhibition of radioligand binding,"Human melanocortin (MC5); [125I]-NDP-αMSH, FlashPlate",− (“−” indicates less than 50% inhibition at 10 μM)
same,A3: inhibition of radioligand binding,"Human Melanocortin (MC3); [125I]-NDP-αMSH, FlashPlate",− (“−” indicates less than 50% inhibition at 10 μM)
same,A7: inhibition of radioligand binding,"Human μ-opioid (MOP); [3H]-Naloxone, FlashPlate",− (“−” indicates less than 50% inhibition at 10 μM)
same,A6: inhibition of radioligand binding,"[1]; [125I]-S36057, FlashPlate",− (“−” indicates less than 50% inhibition at 10 μM)
same,A8: inhibition of radioligand binding,"Human neurokinin (NK1); [125I]-Substance P, filtration",+ (“+” indicates greater than 50% inhibition at 10 μM)
same,A1: inhibition of radioligand binding,"Human δ-opioid (DOP); [3H]-Bremazocine, FlashPlate",− (“−” indicates less than 50% inhibition at 10 μM)
same,A4: inhibition of radioligand binding,"Human Melanocortin (MC4); [125I]-NDP-αMSH, FlashPlate",− (“−” indicates less than 50% inhibition at 10 μM)
same,A9: inhibition of radioligand binding,"[2]; [125I]-PYY, FlashPlate",− (“−” indicates less than 50% inhibition at 10 μM)
same,A10: inhibition of radioligand binding,"Human opioid (ORL1); [125I]-Nociceptin, FlashPlate",− (“−” indicates less than 50% inhibition at 10 μM)
same,A2: inhibition of radioligand binding,"Human κ-Opioid (KOP); [3H]-Diprenorphine, filtration",− (“−” indicates less than 50% inhibition at 10 μM)
